From ChEMBL document CHEMBL1143050, “QSAR study on permeability of hydrophobic compounds with artificial membranes” (Bioorg Med Chem, 2007)
Residues, ends and D or L forms follow the SMILES beside them.

Columns and labels:
[1] = Permeability coefficient through artificial membrane in presence of unstirred water layer by PAMPA
[2] = Partition coefficient, log P of the compound; conditions: octanol/water
[3] = Permeability coefficient through artificial membrane in presence of stirred water layer

SMILES	LogP app [1]	logP [2]	Papp [1]	Papp ([3]; PAMPA)	LogP app ([3]; artificial membrane)	LogP app ([3]; PAMPA)
O=C1N[C@@H](Cc2c[nH]c3ccccc23)C(=O)N[C@H]1Cc1c[nH]c2ccccc12	-5.04	2.04	–	–	–	–
O=C1CNC(=O)[C@H](Cc2c[nH]c3ccccc23)N1	-6.02	0.07	–	–	–	–
NC(=O)[C@@H](N)Cc1c[nH]c2ccccc12	-5.56	0.3	–	–	–	–
CC(=O)N[C@@H](Cc1c[nH]c2ccccc12)C(=O)N[C@H](C(N)=O)C(C)C	-6.18	0.73	–	–	–	–
CCc1ccc(C)nc1	-5.55	3.3	2.85 ×10⁻⁶ cm/s	12.9 ×10⁻⁶ cm/s	-4.89	–
CC(=O)N[C@H](Cc1c[nH]c2ccccc12)C(=O)N[C@H](C(N)=O)C(C)C	-6.14	0.65	–	–	–	–
Cc1ccc(O)c(C)c1	-4.61	–	24.3 ×10⁻⁶ cm/s	263 ×10⁻⁶ cm/s	-3.58	–
O=[N+]([O-])c1cc(Cl)ccc1Cl	-5.11	3.03	7.78 ×10⁻⁶ cm/s	80.7 ×10⁻⁶ cm/s	-4.09	–
O=C(O)c1c[nH]c2ccccc12	-6.1	–	–	–	–	–
Nc1ccccc1Cl	-4.48	–	33.1 ×10⁻⁶ cm/s	246 ×10⁻⁶ cm/s	-3.63	–
CC(=O)N[C@@H](Cc1ccc(O)cc1)C(=O)N[C@@H](CC(C)C)C(N)=O (Ac-Tyr-Leu-NH2)	-6.54	0.32	–	–	–	–
CC(=O)N[C@@H](Cc1ccc(O)cc1)C(=O)N[C@@H](Cc1ccccc1)C(N)=O (Ac-Tyr-Phe-NH2)	–	0.54	–	–	–	–
NCC(=O)N[C@@H](Cc1c[nH]c2ccccc12)C(N)=O (H-Gly-Trp-NH2)	-6.38	-0.48	–	–	–	–
NC(=O)[C@H](Cc1c[nH]c2ccccc12)NC(=O)[C@@H](N)Cc1ccccc1 (H-Phe-Trp-NH2)	-5.22	1.38	–	–	–	–
CC(C)[C@H](NC(=O)[C@H](C)NC(=O)[C@@H](N)Cc1c[nH]c2ccccc12)C(N)=O (H-Trp-Ala-Val-NH2)	-6.62	0.4	–	–	–	–
Oc1ccc(Cl)cc1Cl [2,4-DICHLOROPHENOL]	-4.93	–	11.9 ×10⁻⁶ cm/s	127 ×10⁻⁶ cm/s	-3.9	–
Oc1ccccc1Cl [2-CHLOROPHENOL]	-4.3	–	50 ×10⁻⁶ cm/s	15.2 ×10⁻⁶ cm/s	-4.82	–
Nc1ccccc1[N+](=O)[O-] [2-NITROANILINE]	-4.54	–	28.6 ×10⁻⁶ cm/s	229 ×10⁻⁶ cm/s	-3.64	–
Nc1cccc(Cl)c1 [3-CHLOROANILINE]	-4.44	–	36.7 ×10⁻⁶ cm/s	261 ×10⁻⁶ cm/s	-3.58	–
O=[N+]([O-])c1cccc(O)c1 [3-NITRO-PHENOL]	-4.77	–	17.1 ×10⁻⁶ cm/s	69.4 ×10⁻⁶ cm/s	-4.16	–
Nc1cccc([N+](=O)[O-])c1 [3-NITROANILINE]	-4.67	–	21.6 ×10⁻⁶ cm/s	196 ×10⁻⁶ cm/s	-3.7	–
Nc1ccc(Cl)cc1 [4-CHLOROANILINE]	-4.38	1.88	41.8 ×10⁻⁶ cm/s	258 ×10⁻⁶ cm/s	-3.59	–
N#Cc1ccc(O)cc1 [4-CYANOPHENOL]	-4.77	–	17 ×10⁻⁶ cm/s	22.3 ×10⁻⁶ cm/s	-4.65	–
CC(=O)Nc1ccc(O)cc1 [ACETAMINOPHEN]	-6.04	–	–	2.22 ×10⁻⁶ cm/s	-5.65	–
CC(=O)N[C@@H](Cc1c[nH]c2ccccc12)C(N)=O [ACETYLTRYPTOPHANAMIDE]	-5.72	0.42	–	–	–	–
Nc1ccccc1 [ANILINE]	-4.12	–	75.9 ×10⁻⁶ cm/s	306 ×10⁻⁶ cm/s	-3.51	–
Cc1cc(=O)n(-c2ccccc2)n1C [ANTIPYRINE]	-5.54	–	–	–	–	–

SMILES	LogP app [1]	logP [2]	Papp [1]	Papp ([3]; PAMPA)	LogP app ([3]; artificial membrane)	LogP app ([3]; PAMPA)
c1ccc(-c2ccccc2)cc1 [BIPHENYL]	-5.95	4.01	1.12 ×10⁻⁶ cm/s	53.3 ×10⁻⁶ cm/s	–	-4.27
O=C(N[C@H](CO)[C@H](O)c1ccc([N+](=O)[O-])cc1)C(Cl)Cl [CHLORAMPHENICOL]	–	–	–	5.75 ×10⁻⁶ cm/s	–	–
Cc1cc(C)cc(C(=O)N(NC(=O)c2ccc3c(c2C)CCCO3)C(C)(C)C)c1 [CHROMAFENOZIDE]	-4.78	2.7	16.7 ×10⁻⁶ cm/s	–	–	–
Clc1cccc(Cl)c1N=C1NCCN1 [CLONIDINE]	-4.98	1.43	–	11.4 ×10⁻⁶ cm/s	–	-4.94
C[C@]12C[C@H](O)[C@H]3[C@@H](CCC4=CC(=O)CC[C@@]43C)[C@@H]1CC[C@@H]2C(=O)CO [CORTICOSTERONE]	-4.77	–	–	34.2 ×10⁻⁶ cm/s	-4.47	–
C[C@@H]1C[C@H]2[C@@H]3CCC4=CC(=O)C=C[C@]4(C)[C@@]3(F)[C@@H](O)C[C@]2(C)[C@@]1(O)C(=O)CO [DEXAMETHASONE]	-5.37	2.01	–	11.3 ×10⁻⁶ cm/s	-4.95	–
CCOC(=O)c1ccccc1C(=O)OCC [DIETHYL PHTHALATE]	-4.82	–	15.1 ×10⁻⁶ cm/s	–	–	–
COC(=O)c1ccccc1C(=O)OC [DIMETHYL PHTHALATE]	-4.36	1.56	43.3 ×10⁻⁶ cm/s	158 ×10⁻⁶ cm/s	-3.8	–
O=C(O)c1ccccc1Nc1ccccc1 [FENAMIC ACID]	-4.86	–	13.8 ×10⁻⁶ cm/s	24.3 ×10⁻⁶ cm/s	-4.61	–
CCC(C)c1ccccc1OC(=O)NC (configuration not stated) [FENOBUCARB]	-4.91	–	12.4 ×10⁻⁶ cm/s	131 ×10⁻⁶ cm/s	-3.88	–
CC(C)(C)N(NC(=O)c1ccc(Cl)cc1)C(=O)c1ccccc1 [HALOFENOZIDE]	-4.76	–	17.2 ×10⁻⁶ cm/s	–	–	–
Oc1ccc(O)cc1 [HYDROQUINONE]	-5.14	–	7.31 ×10⁻⁶ cm/s	4.6 ×10⁻⁶ cm/s	–	-5.34
O=[N+]([O-])NC1=NCCN1Cc1ccc(Cl)nc1 [IMIDACLOPRID]	-5.34	0.59	4.52 ×10⁻⁶ cm/s	5.21 ×10⁻⁶ cm/s	-5.31	–
O=C(O)Cc1c[nH]c2ccccc12 [INDOLE-3-ACETIC ACID]	-6.4	–	–	–	–	–
O=C(O)CCc1c[nH]c2ccccc12 [INDOLYLPROPIONIC ACID]	-5.68	–	–	–	–	–
CC(CCc1ccccc1)NCC(O)c1ccc(O)c(C(N)=O)c1 (configuration not stated) [LABETALOL]	-5.18	–	–	5.64 ×10⁻⁶ cm/s	-5.25	–
O=[N+]([O-])c1ccccc1O [NITROPHENOLATE]	-4.24	–	57 ×10⁻⁶ cm/s	216 ×10⁻⁶ cm/s	-3.36	–
Cc1ccccc1O [ORTHOCRESOL]	-4.28	–	52.1 ×10⁻⁶ cm/s	295 ×10⁻⁶ cm/s	-3.53	–
Oc1ccccc1 [PHENOL]	-4.33	–	47 ×10⁻⁶ cm/s	–	–	-3.83
CC(=O)Nc1ccc(OCC(O)CNC(C)C)cc1 (configuration not stated) [PRACTOLOL]	-5.98	–	–	0.37 ×10⁻⁶ cm/s	-6.43	–
CNC(=C[N+](=O)[O-])NCCSCc1ccc(CN(C)C)o1 [RANITIDINE]	-6.05	–	–	3 ×10⁻⁶ cm/s	–	-5.52
COP1(=S)OCc2ccccc2O1 (configuration not stated) [SALITHION]	-5.03	–	9.39 ×10⁻⁶ cm/s	43.9 ×10⁻⁶ cm/s	-4.36	–
Cn1c(=O)c2[nH]cnc2n(C)c1=O.O [THEOPHYLLINE]	-5.31	–	–	–	–	–
CCN(CC)C(=O)SCc1ccc(Cl)cc1 [THIOBENCARB]	-4.69	–	20.6 ×10⁻⁶ cm/s	92.9 ×10⁻⁶ cm/s	-4.03	–
NCCc1c[nH]c2ccccc12 [TRYPTAMINE]	-5.27	1.35	–	–	–	–
OCCc1c[nH]c2ccccc12 [TRYPTOPHOL]	-4.72	1.54	–	–	–	–
